Data from patent publication US20080261811A1, “Synergistic Mixtures Exhibiting Insecticidal and Fungicidal Action” (Bayer CropScience AG, priority 2004, published 2008).

Key:
[1] = tested on: Myzus persicae; test: Myzus persicae test (cabbage leaf dip); assay type: in vivo; settings: for Kill in % after 1 day: Table A1; for Kill in % after 6 days: Table A2
From the text: (§1) The expected activity for a given combination of two active compounds can be calculated (cf. COLBY, S. R.; “Calculating Synergistic and Antagonistic Responses of Herbicide Combinations”, Weeds 15, pages 20-22, 1967):
(§2) if • X=the kill rate, expressed in % of the untreated control, when employing active compound A at an application rate of m ppm, • Y=the kill rate, expressed in % of the untreated control, when employing active compound B at an application rate of n ppm, • E=the kill rate, expressed in % of the untreated control, when employing active compounds A and B at application rates of m and n ppm, then
(§3) If the actual insecticidal kill rate is higher than the calculated one, the kill rates of the combination are superadditive, i.e. a synergistic effect is present. In this case, the kill rate that is actually observed has to be higher than the value, calculated using the formula above, for the expected kill rate (E).
(§4) To produce a suitable preparation of active compound, 1 part by weight of active compound is mixed with the stated amounts of solvent and emulsifier, and the concentrate is diluted with emulsifier-containing water to the desired concentration.
Cabbage leaves (Brassica oleracea) which are heavily infested by the green peach aphid (Myzus persicae) are treated by being dipped into the preparation of active compound of the desired concentration.
After the desired period of time, the kill in % is determined. 100% means that all aphids have been killed; 0% means that none of the aphids have been killed. The determined kill rates are entered into Colby's formula.

[2] = tested on: Phaedon cochleariae; test: Phaedon cochleariae larvae test (cabbage leaf dip); assay type: in vivo; settings: for Kill in % after 4 days: Table B1; for Kill in % after 6 days: Table B2
From the text: as §1, §2, §3, §4
Cabbage leaves (Brassica oleracea) are treated by being dipped into the preparation of active compound of the desired concentration and populated with larvae of the mustard beetle (Phaedon cochleariae) while the leaves are still moist.
After the desired period of time, the kill in % is determined. 100% means that all beetle larvae have been killed; 0% means that none of the beetle larvae have been killed. The determined kill rates are entered into Colby's formula.

With `COCC(=O)N(c1c(C)cccc1C)C(C)C(=O)OC` (stereo not shown) [metalaxyl] the “Kill in % after 1 day” value ([1]; 500 ppm) was 0%.

`COCC(=O)N(c1c(C)cccc1C)[C@H](C)C(=O)OC` [metalaxyl M] was tested, and the “Kill in % after 1 day” value ([1]; 500 ppm) was 0% and the “Kill in % after 4 days” value ([2]; 500 ppm) was 0%.

In the case of `COC(=O)[C@@H](C)N(C(=O)Cc1ccccc1)c1c(C)cccc1C` [benalaxyl M, methyl N-(phenylacetyl)-N-(2,6-xylyl)-D-alaninate], the “Kill in % after 6 days” value ([1]; 500 ppm) is reported as 0% and the “Kill in % after 6 days” value ([2]; 500 ppm) is reported as 0%.

In the case of `COC(=O)C(C)N(C(=O)Cc1ccccc1)c1c(C)cccc1C` (stereo not shown) [benalaxyl], the “Kill in % after 6 days” value ([2]; 500 ppm) is reported as 0%.

`CN/C(=N\[N+](=O)[O-])NCc1cnc(Cl)s1` [clothianidin] was tested, and the “Kill in % after 1 day” value ([1]; 0.8 ppm) was 45%, the “Kill in % after 6 days” value ([1]; 0.8 ppm) was 35% and the “Kill in % after 4 days” value ([2]; 4 ppm) was 40%. For the same molecule, the “Kill in % after 6 days” value ([2]; 4 ppm) was 60%.
